{"source": "patent EP0173527A2", "about": "“Insulin-selective somatostatin analogs” (THE SALK INSTITUTE FOR BIOLOGICAL STUDIES, priority 1984, dated 1986)", "key": {"[1]": {"system": "cells of rat pituitary glands", "experiment": "in vitro radioimmunoassay of growth hormone release from cultured rat pituitary cells, side-by-side comparison with somatostatin-14", "type": "cell-based", "details": "for biological activity / potency: comparative in vitro testing, compared with aSS-28", "protocol": "To determine the effectiveness of the peptides to inhibit the release of […], in vitro radioimmunoassays are carried out using aSS-28, [Lys^23]-aSS-28 and aSS(15-28) in side-by-side comparison with equimolar concentrations of somotostatin-14 having a known effectiveness to inhibit the release of growth hormone induced by the application of isobutyl methyl xanthine to pituitary cells. Cultures are used which include cells of rat pituitary glands removed some four to five days previously in a system that minimizes enzymatic degradation, generally following the procedure set forth in Vale et al., Methods in Enzymology, Hormones and Cyclic Nucleotides (1975) Vol. 37, p. 82. Both cultures of a defined standard medium and cultures which are considered optimal for the secretion of growth hormone, as a result of having additions of either 2% or 10% of serum from a foetal calf, are used for the comparative testing."}, "[2]": {"details": "synthetic SS-28; Pradayrol et al., FEBS Letters 109, 1980; cited from earlier work"}, "[3]": {"system": "secretion of glucagon and insulin", "experiment": "in vivo inhibition of insulin (and glucagon) secretion, potency relative to somatostatin-14", "parameters": "species or system rats", "details": "basal and stimulated insulin secretion in mammals, including humans and dogs; compared with somatostatin-14 and somatostatin-28", "protocol": "In vivo experiments are carried out with aSS-28, using the procedure described in Brown et al., Metabolism (1976) Vol. 25, pp. 1501-1503, to determine the potency, relative to somatostatin-14, to inhibit the secretion of glucagon and insulin stimulated by the administration of arginine to groups of rats."}}, "note": "Entries after “also recorded” stand apart in the source; their conditions may differ. Positions of bridges follow the written chain, without caps; N, C: chain ends."}
{"substance": "H-Ala-Gly-Cys-Lys-Asn-Phe-Tyr-Trp-Hyl-Gly-Phe-Thr-Ser-Cys-OH [aSS(15-28)]", "values": [{"measurement": "biological activity / potency", "setting": "[1]", "result": "similarly biologically active although having somewhat lower potencies"}]}
{"substance": "H-Ser-Ala-Asn-Ser-Asn-Pro-Ala-Met-Ala-Pro-Arg-Glu-Arg-Lys-Ala-Gly-Cys-Lys-Asn-Phe-Phe-Trp-Lys-Thr-Phe-Thr-Ser-Cys-OH [SS-28]", "values": [{"measurement": "potency when administered in vivo", "setting": "[2]", "result": "increased potency"}]}
{"substance": "H-Ser-Val-Asp-Ser-Thr-Asn-Asn-Leu-Pro-Pro-Arg-Glu-Arg-Lys-Ala-Gly-Cys-Lys- Asn-Phe-Tyr-Trp-Lys-Gly-Phe-Thr-Ser-Cys-OH (H-SVDSTNNLPPRERKAGCKNFYWKGFTSC-OH; disulfide 17-28 (inferred); ends not checked) [[Lys 23]-aSS-28]", "values": [{"measurement": "biological activity / potency", "setting": "[1]", "result": "similarly biologically active although having somewhat lower potencies"}]}
{"substance": "H-Ser-Val-Asp-Ser-Thr-Asn-Asn-Leu-Pro-Pro-Arg-Glu-Arg-Lys-Ala-Gly-Cys-Lys-Asn-Phe-Tyr-Trp-Hyl-Gly-Phe-Thr-Ser-Cys-OH [aSS-28]", "values": [{"measurement": "insulin-selectivity", "setting": "[1]; inferred from GH inhibition compared with SS-14", "result": "likely insulin-selective; also recorded: extreme insulin-selectivity"}, {"measurement": "inhibition of GH", "setting": "[1]; release of growth hormone induced by isobutyl methyl xanthine, compared with equimolar SS-14", "result": "substantially less than SS-14"}, {"measurement": "potency to inhibit insulin secretion", "setting": "[3]", "result": "increased potency; also recorded: more potent than either somatostatin-14 or somatostatin-28"}]}
